Laboratory results published in patent US20180214395A1 (priority 2017, published 2018).

Experiment: SAD study: cardiac safety (ECG, telemetry, QTcF prolongation)

CCC(=O)C(C[C@H](C)N(C)C)(c1ccccc1)c1ccccc1 [d-methadone]
QTcF Reading 1 (100 mg, subject 9056, 0.5 h): 415 ms | QTcF Reading 2 (100 mg, subject 9056, 0.5 h): 424 ms | QTcF Reading 3 (100 mg, subject 9056, 0.5 h): 436 ms | QTcF Average (100 mg, subject 9056, 2 h): 439 ms | QTcF Reading 1 (100 mg, subject 9056, 2 h): 445 ms | QTcF Reading 2 (100 mg, subject 9056, 2 h): 426 ms | QTcF Reading 3 (100 mg, subject 9056, 2 h): 446 ms | QTcF Average (100 mg, subject 9056, 3 h): 442 ms | QTcF Reading 1 (100 mg, subject 9056, 3 h): 453 ms | QTcF Reading 2 (100 mg, subject 9056, 3 h): 443 ms | QTcF Reading 3 (100 mg, subject 9056, 3 h): 429 ms | QTcF Average (100 mg, subject 9056, 5 h): 429 ms | QTcF Reading 1 (100 mg, subject 9056, 5 h): 419 ms | QTcF Reading 2 (100 mg, subject 9056, 5 h): 448 ms | QTcF Reading 3 (100 mg, subject 9056, 5 h): 419 ms | QTcF Average (100 mg, subject 9056, 8 h): 446 ms | QTcF Reading 1 (100 mg, subject 9056, 8 h): 436 ms | QTcF Reading 2 (100 mg, subject 9056, 8 h): 457 ms | QTcF Reading 3 (100 mg, subject 9056, 8 h): 444 ms | QTcF Average (100 mg, subject 9056, 24 h): 432 ms | QTcF Reading 1 (100 mg, subject 9056, 24 h): 432 ms | QTcF Reading 2 (100 mg, subject 9056, 24 h): 431 ms | QTcF Reading 3 (100 mg, subject 9056, 24 h): 434 ms | QTcF Average (100 mg, subject 9056, 48 h): 422 ms | QTcF Reading 1 (100 mg, subject 9056, 48 h): 418 ms | QTcF Reading 2 (100 mg, subject 9056, 48 h): 433 ms | QTcF Reading 3 (100 mg, subject 9056, 48 h): 416 ms | Overall ECG result Abnormal, NCS (150 mg (N = 6), 0.5 h): 1 (16.7) n (%) | Overall ECG result Normal (150 mg (N = 6), 0.5 h): 5 (83.3) n (%) | Overall ECG result Abnormal, NCS (150 mg (N = 6), 1 h): 2 (33.3) n (%) | Overall ECG result Normal (150 mg (N = 6), 1 h): 4 (66.7) n (%) | Overall ECG result Abnormal, NCS (150 mg (N = 6), 2 h): 2 (33.3) n (%) | Overall ECG result Normal (150 mg (N = 6), 2 h): 4 (66.7) n (%) | Overall ECG result Abnormal, NCS (150 mg (N = 6), 3 h): 4 (66.7) n (%) | Overall ECG result Normal (150 mg (N = 6), 3 h): 2 (33.3) n (%) | Overall ECG result Abnormal, NCS (150 mg (N = 6), 5 h): 2 (33.3) n (%) | Overall ECG result Normal (150 mg (N = 6), 5 h): 4 (66.7) n (%) | Overall ECG result Abnormal, NCS (150 mg (N = 6), 8 h): 2 (33.3) n (%) | Overall ECG result Normal (150 mg (N = 6), 8 h): 4 (66.7) n (%) | Overall ECG result Abnormal, NCS (150 mg (N = 6), 12 h): 2 (33.3) n (%) | Overall ECG result Normal (150 mg (N = 6), 12 h): 4 (66.7) n (%) | Overall ECG result Abnormal, NCS (150 mg (N = 6), 24 h): 1 (16.7) n (%) | Overall ECG result Normal (150 mg (N = 6), 24 h): 5 (83.3) n (%) | Overall ECG result Abnormal, NCS (150 mg (N = 6), 48 h): 1 (16.7) n (%) | Overall ECG result Normal (150 mg (N = 6), 48 h): 5 (83.3) n (%) | Overall ECG result Abnormal, NCS (150 mg (N = 6), 72 h): 0 n (%) | Overall ECG result Normal (150 mg (N = 6), 72 h): 6 (100) n (%) | Overall ECG result Abnormal, NCS (150 mg (N = 6), Visit 3): 0 n (%) | Overall ECG result Normal (150 mg (N = 6), Visit 3): 6 (100) n (%) | QTcF Average (150 mg, subject 9088, 3 h): 422 ms | QTcF Reading 1 (150 mg, subject 9088, 3 h): 410 ms | QTcF Reading 2 (150 mg, subject 9088, 3 h): 434 ms | QTcF Reading 3 (150 mg, subject 9088, 3 h): 423 ms | QTcF Average (150 mg, subject 9088, 12 h): 430 ms | QTcF Reading 1 (150 mg, subject 9088, 12 h): 434 ms | QTcF Reading 2 (150 mg, subject 9088, 12 h): 427 ms | QTcF Reading 3 (150 mg, subject 9088, 12 h): 429 ms | QTcF Average (150 mg, subject 9099, 3 h): 429 ms | QTcF Reading 1 (150 mg, subject 9099, 3 h): 420 ms | QTcF Reading 2 (150 mg, subject 9099, 3 h): 431 ms | QTcF Reading 3 (150 mg, subject 9099, 3 h): 435 ms | QTcF Average (150 mg, subject 9099, 5 h): 436 ms | QTcF Reading 1 (150 mg, subject 9099, 5 h): 437 ms | QTcF Reading 2 (150 mg, subject 9099, 5 h): 440 ms | QTcF Reading 3 (150 mg, subject 9099, 5 h): 431 ms | Overall ECG result Abnormal, NCS (200 mg (N = 1), 0.5 h): 1 (100) n (%) | Overall ECG result Normal (200 mg (N = 1), 0.5 h): 0 n (%) | Overall ECG result Abnormal, NCS (200 mg (N = 1), 1 h): 1 (100) n (%) | Overall ECG result Normal (200 mg (N = 1), 1 h): 0 n (%) | Overall ECG result Abnormal, NCS (200 mg (N = 1), 2 h): 1 (100) n (%) | Overall ECG result Normal (200 mg (N = 1), 2 h): 0 n (%) | Overall ECG result Abnormal, NCS (200 mg (N = 1), 3 h): 1 (100) n (%) | Overall ECG result Normal (200 mg (N = 1), 3 h): 0 n (%) | Overall ECG result Abnormal, NCS (200 mg (N = 1), 5 h): 1 (100) n (%) | Overall ECG result Normal (200 mg (N = 1), 5 h): 0 n (%) | Overall ECG result Abnormal, NCS (200 mg (N = 1), 8 h): 0 n (%) | Overall ECG result Normal (200 mg (N = 1), 8 h): 1 (100) n (%) | Overall ECG result Abnormal, NCS (200 mg (N = 1), 12 h): 0 n (%) | Overall ECG result Normal (200 mg (N = 1), 12 h): 1 (100) n (%) | Overall ECG result Abnormal, NCS (200 mg (N = 1), 24 h): 1 (100) n (%) | Overall ECG result Normal (200 mg (N = 1), 24 h): 0 n (%) | Overall ECG result Abnormal, NCS (200 mg (N = 1), 48 h): 0 n (%) | Overall ECG result Normal (200 mg (N = 1), 48 h): 1 (100) n (%) | Overall ECG result Abnormal, NCS (200 mg (N = 1), 72 h): 0 n (%) | Overall ECG result Normal (200 mg (N = 1), 72 h): 1 (100) n (%) | Overall ECG result Abnormal, NCS (200 mg (N = 1), Visit 3): 0 n (%) | Overall ECG result Normal (200 mg (N = 1), Visit 3): 1 (100) n (%) | QTcF Average (200 mg, subject 9078, 3 h): 426 ms | QTcF Reading 1 (200 mg, subject 9078, 3 h): 441 ms | QTcF Reading 2 (200 mg, subject 9078, 3 h): 422 ms | QTcF Reading 3 (200 mg, subject 9078, 3 h): 416 ms | ECG abnormal result: QTcF prolongation (SAD 5 mg, 1 h): 1 (16.7) n (%) | ECG abnormal result: QTcF prolongation (SAD 5 mg, 2 h): 2 (33.3) n (%) | ECG abnormal result: QTcF prolongation (SAD 5 mg, 3 h): 1 (16.7) n (%) | ECG abnormal result: QTcF prolongation (SAD 5 mg, 5 h): 2 (33.3) n (%) | ECG abnormal result: QTcF prolongation (SAD 5 mg, total): 3 (50.0) n (%) | ECG abnormal result: QTcF prolongation (SAD 20 mg, total): 0 n (%) | ECG abnormal result: QTcF prolongation (SAD 60 mg, total): 0 n (%) | ECG abnormal result: QTcF prolongation (SAD 100 mg, 0.5 h): 1 (16.7) n (%) | ECG abnormal result: QTcF prolongation (SAD 100 mg, 2 h): 1 (16.7) n (%) | ECG abnormal result: QTcF prolongation (SAD 100 mg, 3 h): 1 (16.7) n (%) | ECG abnormal result: QTcF prolongation (SAD 100 mg, 5 h): 1 (16.7) n (%) | ECG abnormal result: QTcF prolongation (SAD 100 mg, 8 h): 1 (16.7) n (%) | ECG abnormal result: QTcF prolongation (SAD 100 mg, 24 h): 1 (16.7) n (%) | ECG abnormal result: QTcF prolongation (SAD 100 mg, 48 h): 1 (16.7) n (%) | ECG abnormal result: QTcF prolongation (SAD 100 mg, total): 1 (16.7) n (%) | ECG abnormal result: QTcF prolongation (SAD 150 mg, 3 h): 2 (33.3) n (%) | ECG abnormal result: QTcF prolongation (SAD 150 mg, 5 h): 1 (16.7) n (%) | ECG abnormal result: QTcF prolongation (SAD 150 mg, 12 h): 1 (16.7) n (%) | ECG abnormal result: QTcF prolongation (SAD 150 mg, total): 2 (33.3) n (%) | ECG abnormal result: QTcF prolongation (SAD 200 mg (N=1), 3 h): 1 (100) n (%) | ECG abnormal result: QTcF prolongation (SAD 200 mg (N=1), total): 1 (100) n (%) | Dose relation of QTcF prolongation (SAD study): no dose-related effects were observed | Maximum QTcF interval observed (SAD study, Subject 9056): 457 ms
